# Data reported in paper PMC13100289 (The Journal of Biological Chemistry, 2026).
# Target: T1, Neutral endopeptidase (neprilysin) (Homo sapiens, UniProt P08473)
# T1 construct: purchased; host or cells: CHO cells
# Test: Metalloprotease selectivity panel (Eurofins Panlabs): neprilysin
# Type: biochemical
# Conditions: assay validation, read-out: IC50 of reference inhibitor
# Source text: Supplementary Table S1. […] Reference compounds were used to validate the assay for inhibition.
# T1 sequence (P08473 whole entry): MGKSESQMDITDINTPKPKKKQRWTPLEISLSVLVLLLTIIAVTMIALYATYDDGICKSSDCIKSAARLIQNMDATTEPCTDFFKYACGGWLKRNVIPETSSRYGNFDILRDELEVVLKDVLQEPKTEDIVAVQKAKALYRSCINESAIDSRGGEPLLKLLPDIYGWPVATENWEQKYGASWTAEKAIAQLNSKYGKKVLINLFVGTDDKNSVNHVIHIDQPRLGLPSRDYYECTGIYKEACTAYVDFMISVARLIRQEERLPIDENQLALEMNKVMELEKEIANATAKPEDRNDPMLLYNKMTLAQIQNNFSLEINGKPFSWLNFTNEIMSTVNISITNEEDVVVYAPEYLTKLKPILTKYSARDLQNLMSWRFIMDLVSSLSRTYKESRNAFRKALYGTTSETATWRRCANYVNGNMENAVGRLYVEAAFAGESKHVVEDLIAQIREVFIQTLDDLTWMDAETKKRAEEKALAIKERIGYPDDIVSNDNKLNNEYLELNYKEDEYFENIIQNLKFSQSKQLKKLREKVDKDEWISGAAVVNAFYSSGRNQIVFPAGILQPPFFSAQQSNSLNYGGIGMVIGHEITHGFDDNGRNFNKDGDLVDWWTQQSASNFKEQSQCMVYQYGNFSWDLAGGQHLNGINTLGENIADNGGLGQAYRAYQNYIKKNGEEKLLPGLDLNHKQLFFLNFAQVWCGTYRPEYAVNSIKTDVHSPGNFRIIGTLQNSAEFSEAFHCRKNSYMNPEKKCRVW
smiles,measurement,value
CC(C)C[C@H](NP(=O)(O)O[C@@H]1O[C@@H](C)[C@H](O)[C@@H](O)[C@H]1O)C(=O)N[C@@H](Cc1c[nH]c2ccccc12)C(=O)O [Phosphoramidon],IC50,1.99 nM
